System: IgE
Experiment: Inhibition of de novo IgE synthesis after oral (intragastric) administration
Format: in vivo, mouse (Balb/c female)
Conditions: for IgE ± SD: 20 μg intragastric TID days 3 and 4
Experimental: ELISA (enzyme linked immunosorbant assay) measurements of IgE are as follows. About 5 μg of B1E3 antibody in 100 μl borate buffered saline (pH8.5) is added to wells of a NuncImmulon II 96 well plate (DiRuscio & Assoc., St. Louis, Mo.) at 37° C. for 90 minutes. The non-bound antibody is removed by flicking the plate. Unreacted sites on the plastic plate are blocked by adding about 200 μl of a 2% solution of newborn bovine serum (NBS) in PBS at 37° C. for 60 minutes. The standard IgE (or an unknown murine serum sample) is diluted to between about 4 ng/ml-256 ng/ml in Hanks-HS (20 mM Hepes, 2% NBS in Hanks Balanced Salt Solution, Gibco, Grand Island, N.Y.) or to 1/200 to 1/1000 in Hanks-HS respectively. 100 μl of standard (or unknown dilutions) are added in triplicate to the wells of the plate and allowed to absorb to B1E3 antibody at about 37° C. for 2-4 hours. The solution is removed by flicking the plate and each well is washed with about 0.5 ml 0.05% Tween 20-PBS 5 times. About 100 μl of biotinylated R1E4, called the primary antibody, diluted to 200 ng/ml is added to all wells and incubated at about 4° C. overnight. The solution is removed by flicking the plate and washed 5 times as described above. The developing reagent (Avidin and biotin-horse radish peroxidase) is incubated in 2% NBS in PBS at ambient temperature for 30 minutes, according to manufacturer's specifications (Vector Laboratories, Burlingame, Calif.). About 100 μl of developing reagent is added to each well and incubated at ambient temperature for 30 minutes. Colorimetric substrate for the developing reagent (ABTS peroxidase substrate system, KPL, Gaithersburg, Md.) is prepared by mixing equal volumes of solutions A and B and incubating at ambient temperature for 60 minutes. The developing reagent solution is removed by flicking the plate and washed 5 times as described above. About 100 μl of the mixture of substrates is added to each well and incubated at ambient temperature for 60 minutes. The optical density of each well is determined on a BioTek ELISA reader (Biotek Instruments, Inc., Burlington, Vermont) and the absorbance data transferred electronically to a DEC VAX mainframe computer. A standard curve is fitted to the IgE standard optical densities using straight line, linear regression statistical fits. IgE in the unknown serum samples is determined by comparing the optical density of the unknown to the standard curve and multiplying that number by the dilution of serum used in the assay.
Three groups of 4 Balb/c female mice per group are injected with both 100 μg FF1-4D5 antibody and 100 μg H∂A1 antibody (Groups B, C, and D). Another group of 4 Balb/c female mice is injected with PBS alone, unstimulated control Group A. One of the stimulated group were not given any prostaglandin control Group B. On day 3 and 4, individual groups receive an intragastric feeding TID of 0.25 ml of 20 μg of (±) methyl 11α,16-dihydroxy-16-methyl-9-oxoprosta-5Z,13E-dien-1-oate (Group C) or 20 μg of prostaglandin E2 (Group D) dissolved in PBS.

CCCCC(C)(O)C/C=C/[C@H]1[C@H](O)CC(=O)[C@@H]1C/C=C\CCCC(=O)OC (mixture of isomers) [(±) methyl 11α,16-dihydroxy-16-methyl-9-oxoprosta-5Z,13E-dien-1-oate]
inhibition of de novo IgE synthesis after oral administration (20 μg intragastric TID): significantly inhibits de novo IgE synthesis after oral administration
IgE ± SD (day 8 (stimulated control 5792, unstimulated 1015)): 1490 ± 525 ng/mL
IgE ± SD (day 10 (stimulated control 1498)): 1131 ± 198 ng/mL
IgE ± SD (day -1 baseline before treatment): 1115 ± 201 ng/mL

Reference: US5157052A, “Method for inhibiting IgE production” (priority 1990, dated 1992)
